How the values were obtained:
Assay type in all cases: physicochemical
[1] = Dynamic vapor sorption (DVS) scan; conditions: for water absorption (DVS scan): at 90% RH
Description: The purity of the Form 13 sample was 98.8%; the KF of an undried Form 13 sample was 35.7%.

[2] = Form conversion on exposure to relative humidity / air (XRD); conditions: for XRD after exposure to air overnight: exposed to air overnight
Protocol: The hydrate lost its water below 30% RH.
Solvates 1 and 2 solids were exposed to air overnight, and then analyzed by XRD. After the analysis, the solids were dried at 50° C. under vacuum, and then analyzed by XRD again.

[3] = Form conversion on drying (XRD); conditions: for XRD after drying at 50° C. under vacuum: after air exposure overnight, dried at 50° C. under vacuum
Protocol: The Form 1 solid was dried at 75° C. under vacuum overnight, and XRD, DSC, and TGA scans were performed. […] However, the DSC scans indicated the absence of endotherm. The loss of the early peak on the DSC scan had no effect on the XRD trace, showing that the endotherm between 50-100° C. on DSC scan was due to the free solvent. The purity of the Form 13 sample was 98.8%; the KF of an undried Form 13 sample was 35.7%. […] Solvates 1 and 2 solids were exposed to air overnight, and then analyzed by XRD. After the analysis, the solids were dried at 50° C. under vacuum, and then analyzed by XRD again.

[4] = Heating in DSC chamber, then XRD scan (form conversion)
Protocol: The Form 1 solid was heated in a DSC chamber to 305° C. (past the endotherm/exotherm around 280° C.), and then scanned by XRD. […] Thus, the endotherm/exotherm around 280° C. might be due to melting/crystallization events.
The Form 2 solid was heated in a DSC machine to 90° C. (past the endotherm between 50-100° C.); to 270° C. (past the endotherm/exotherm around 240° C.); and finally to 330° C. (past the exotherm […]). The residual solid was analyzed by XRD. […] The endotherm between 50-100° C. might be free solvent or hydrate. […] Thus, the exotherm around 290° C. was a re-crystallization event. According to an XRD and DSC overlay, the behavior of Form 2* was similar to Form 2.
Form 13 solid was heated in a DSC chamber to 170° C. (past the endotherm between 50-100° C.), and then scanned by XRD. […] It can be concluded that the endotherm between 50-100° C. is due to bonded water.
Form 13 solid was heated in a DSC chamber to 330° C. (past the endotherm/exotherm around 300° C.), and then scanned by XRD. […] It can be concluded that the endotherm/exotherm is due to melting/crystallization events.

[5] = Competitive reslurry experiments between polymorph forms (thermodynamic stability); conditions: 3-5 days
Protocol: In order to find out the thermodynamic stability between the different forms, several competitive reslurry experiments were carried out. Form 1, Form 2, Form 2*, Form 3, Form 4, Form 4*, Form 4**, Form 5, Form 7, Form 8, Form 9, Form 10, Form 11, Form 11*, and Form 13 (10 mg for each) were mixed and slurried in 2 mL of solvent at both RT and 50° C. The solids were slurried for 3-5 days and then analyzed by XRD.

[6] = Competitive reslurry of Form 1, Form 9 and Form 13 (stability of Form 13 vs Form 9); conditions: toluene, IPAc, n-butyl acetate; 3 days at RT and 50° C.
Protocol: In order to find out the thermodynamic stability between Form 13 and Form 9, several competitive reslurry experiments were carried out. 15 mg of Form 1, Form 9 and Form 13 solids were mixed in 1 mL of toluene, IPAc, and n-butyl acetate, and slurried for 3 days at RT and 50° C.
The residual solid was analyzed by XRD.

[7] = Reslurry experiments in various solvents (polymorph screen)
Protocol: Reslurry experiments in various solvents were performed. Approximately 30-80 mg of the starting solid (a non-stoichiometric hydrate of Form 1 having between 1% and about 20% by weight water) was slurried in 39 different solvents (pure and binary solvents; the ratio of organic solvent/water (V/V) was 95%/5%) at RT and 50° C. for 5 days. Three solvates, one non-stoichiometric hydrate, and eleven non-solvated forms were identified. […] XRD of both wet and dry samples were scanned (FIG. 12A (dry sample)).

[8] = Acetontrile/water (5% water), RT
[9] = n-Butyl acetate/water (5% water), RT

CC(C)CC(=O)Nc1cncc(-c2ccc3[nH]nc(-c4nc5c(-c6cccc(F)c6)cncc5[nH]4)c3c2)c1 [Form 1, N-(5-(3-(7-(3-fluorophenyl)-3H-imidazo[4,5-c]pyridin-2-yl)-1H-indazol-5-yl)pyridin-3-yl)-3-methylbutanamide]
water absorption (DVS scan) [1]: 17%
form change when exposed to air ([2]; exposed to air): converted to a non-stoichiometric hydrate of Form 1
change of XRD scan after drying ([3]; dried at 75° C. under vacuum overnight): no change
form after heating (XRD) ([4]; heated in a DSC chamber to 305° C.): converted to Form 9

CC(C)CC(=O)Nc1cncc(-c2ccc3[nH]nc(-c4nc5c(-c6cccc(F)c6)cncc5[nH]4)c3c2)c1 [Form 2, N-(5-(3-(7-(3-fluorophenyl)-3H-imidazo[4,5-c]pyridin-2-yl)-1H-indazol-5-yl)pyridin-3-yl)-3-methylbutanamide]
form after heating (XRD) ([4]; heated in a DSC machine to 90° C.): did not change
form after heating (XRD) ([4]; heated in a DSC machine to 270° C.): converted to low crystalline solids
form after heating (XRD) ([4]; heated to 330° C.): converted to Form 9
thermodynamic stability in competitive reslurry ([5]; MeOH, EtOH, and acetone system at both RT and 50° C.): most stable form

CC(C)CC(=O)Nc1cncc(-c2ccc3[nH]nc(-c4nc5c(-c6cccc(F)c6)cncc5[nH]4)c3c2)c1 [Form 4, N-(5-(3-(7-(3-fluorophenyl)-3H-imidazo[4,5-c]pyridin-2-yl)-1H-indazol-5-yl)pyridin-3-yl)-3-methylbutanamide]
thermodynamic stability in competitive reslurry ([5]; EA at RT and 50° C.): most stable

CC(C)CC(=O)Nc1cncc(-c2ccc3[nH]nc(-c4nc5c(-c6cccc(F)c6)cncc5[nH]4)c3c2)c1 [Form 9, N-(5-(3-(7-(3-fluorophenyl)-3H-imidazo[4,5-c]pyridin-2-yl)-1H-indazol-5-yl)pyridin-3-yl)-3-methylbutanamide]
form before and after the DVS scan ([1]; DVS scan): did not change its form
water absorption (DVS scan) [1]: 0.8%
thermodynamic stability between Form 13 and Form 9 [6]: difficult to tell which one was more stable

CC(C)CC(=O)Nc1cncc(-c2ccc3[nH]nc(-c4nc5c(-c6cccc(F)c6)cncc5[nH]4)c3c2)c1 [Form 12, N-(5-(3-(7-(3-fluorophenyl)-3H-imidazo[4,5-c]pyridin-2-yl)-1H-indazol-5-yl)pyridin-3-yl)-3-methylbutanamide]
Form; Dry [7, 8]: Form 1
Form; Wet [7, 8]: Form 12
Form; Dry ([7]; EA/water (5% water), RT): Form 1
Form; Wet ([7]; EA/water (5% water), RT): Form 12
Form; Dry ([7]; Heptane/water (5% water), RT): Form 12
Form; Wet ([7]; Heptane/water (5% water), RT): Form 13
Form; Dry ([7]; IPAc/water (5% water), RT): Form 1
Form; Wet ([7]; IPAc/water (5% water), RT): Form 12
Form; Dry ([7]; MA/water (5% water), 50° C.): Form 4
Form; Wet ([7]; MA/water (5% water), 50° C.): Form 12
Form; Dry ([7]; MIBK/water (5% water), RT): Form 1
Form; Wet ([7]; MIBK/water (5% water), RT): Form 12
Form; Dry ([7]; MeOH/water (5% water), RT): Form 1
Form; Wet ([7]; MeOH/water (5% water), RT): Form 12
Form; Dry ([7]; MtBE/water (5% water), RT): Form 1
Form; Wet ([7]; MtBE/water (5% water), RT): Form 12
Form; Dry [7, 9]: Form 12
Form; Wet [7, 9]: Form 13

CC(C)CC(=O)Nc1cncc(-c2ccc3[nH]nc(-c4nc5c(-c6cccc(F)c6)cncc5[nH]4)c3c2)c1 [Solvate 1, N-(5-(3-(7-(3-fluorophenyl)-3H-imidazo[4,5-c]pyridin-2-yl)-1H-indazol-5-yl)pyridin-3-yl)-3-methylbutanamide]
XRD after exposure to air overnight [2]: converted to low crystallinity
XRD after drying at 50° C. under vacuum [3]: still a low crystallinity solid

CC(C)CC(=O)Nc1cncc(-c2ccc3[nH]nc(-c4nc5c(-c6cccc(F)c6)cncc5[nH]4)c3c2)c1 [Solvate 2, N-(5-(3-(7-(3-fluorophenyl)-3H-imidazo[4,5-c]pyridin-2-yl)-1H-indazol-5-yl)pyridin-3-yl)-3-methylbutanamide]
XRD after exposure to air overnight [2]: changed a little
XRD after drying at 50° C. under vacuum [3]: remained the same

CC(C)CC(=O)Nc1cncc(-c2ccc3[nH]nc(-c4nc5c(-c6cccc(F)c6)cncc5[nH]4)c3c2)c1 [non-stoichiometric hydrate of Form 1, N-(5-(3-(7-(3-fluorophenyl)-3H-imidazo[4,5-c]pyridin-2-yl)-1H-indazol-5-yl)pyridin-3-yl)-3-methylbutanamide]
RH below which the hydrate lost its water ([2]; RH): below 30 % RH
